Experiment [1] has as its system 4T1.2 cells. Nature of the experiment: Colony assay, 4T1.2 cells seeded at 100 cells/well, colonies counted after a week. The format is cell-based, mouse. The conditions noted are these: extended exposure time (Ivermectin during the entire duration of the assay). Here is the method:
(§1) FIGS. 1A-1H. Ivermectin kills breast cancer cells through a mixed apoptotic and necrotic mechanism. FIG. 1A: Mouse (4T1.2) and human (MDA-MB-231) TNBC cells manifest similar sensitivity to Ivermectin. Viability of cells treated with various doses of Ivermectin for 24 h. FIG. 1B: Extended exposure time reduces IC50 values to as low as 2 μM. 4T1.2 cells were seeded at 100 cells/well and individual colonies were counted after a week. Cancer cells were exposed to Ivermectin during the initial 24 h or during the entire duration of the assay. FIG. 1C: MDA-MB-231 breast cancer cells manifest higher sensitivity to Ivermectin compared to normal non-transformed human foreskin fibroblasts (HFFs). FIG. 1D: Flow cytometry analysis showing that cell death proceeds through two distinct pathways: a directly necrotic 7AAD-single positive or Annexin V/PS-single positive apoptotic pathway. FIG. 1E: Kinetics of necrotic versus apoptotic killing of 4T1.2 breast cancer cells. FIG. 1F: Ivermectin-induced cell death can be reversed by inhibition of various controlled cell death pathways. 4T1.2 cells were treated for 4 h with 32 μM Ivermectin in the presence of μM concentrations of Z-vad-fmk, Necrostatin-1, Digoxin, or VX-765, as indicated. FIG. 1G: Activation of Caspase-1, Caspase-3 and cleavage of PARP in 4T1.2 and MDA-MB-231 cells treated with 32 μM for 4 h. […]

Experiment [2] deals with 4T1.2 cells. Nature of the experiment: Cytosolic Ca2+ flux. The experiment is classed as cell-based, mouse. Here is the method: Cytosolic Ca^2+ flux. Cancer cells in suspension were washed with PBS and loaded with 1 μM Rhod-3 AM (Life Technologies, R10145) for 30 min at room temperature in the dark. Cells were washed with PBS couple of times and treated with various doses of Ivermectin in R10 medium. Cells were incubated for 15 min to 4 h in 5 ml FACS tubes at 37° C. and 5% CO2, followed by immediate flow cytometry analysis of fluorescence in the PE channel. Chelating of extracellular and intracellular Ca^2+ was performed by supplementing the Ivermectin treatment medium with 1 mM EDTA (USB Corp, 15694) or by adding 20 μM BAPTA-AM (Tocris, 2787) to the Rhod-3 AM loading solution, respectively.
For orientation: Calcium assays in cells follow changes in intracellular calcium, usually with a dye or a luminescent sensor.

The subject of experiment [3] is Caspase-1, Caspase-3 and PARP in 4T1.2 and MDA-MB-231 cells. Kind of experiment: Caspase activation and PARP cleavage. The format is cell-based, mouse, human. Conditions: 32 μM, 4 h. On the procedure:
as §1, with “indicated.” for “indicated. FIG. 1G: Activation of Caspase-1, Caspase-3 and cleavage of PARP in 4T1.2 and MDA-MB-231 cells treated with 32 μM for 4 h.”
Caspase activation and PARP cleavage. […] PARP cleavage was analyzed after fixing the cells (eBioscience, Cat #00-5123 and Cat #00-5223) for 30 min at RT. […]

Consider one compound from patent US11058700B2, “Macrocyclic lactones and uses thereof as modulators of purinergic receptors” (City of Hope, priority 2015, dated 2021).

As for `CC[C@H](C)[C@H]1O[C@]2(CC[C@@H]1C)C[C@@H]1C[C@@H](C/C=C(\C)[C@@H](O[C@H]3C[C@H](OC)[C@@H](O[C@H]4C[C@H](OC)[C@@H](O)[C@H](C)O4)[C@H](C)O3)[C@@H](C)/C=C/C=C3\CO[C@@H]4[C@H](O)C(C)=C[C@@H](C(=O)O1)[C@]34O)O2` [Ivermectin], the IC50 (in general, the concentration needed to halve the response being measured) in experiment [1] was at least 2000 nM. In addition, the “cytosolic Ca2+” value in experiment [2] is listed as “sustained increases in cytosolic Ca^2+”. Also, in experiment [3], the PARP cleavage result is given as “rapid cleavage of PARP”; the caspase activation entry is “potent caspase-1 and caspase-3 activation”.
